Values of other authors in patent publication US20060009509A1, “Progesterone receptor antagonists, contraceptive regimens, and kits” (Wyeth, priority 2004, published 2006).
Like-named read-outs stand apart in the source and are kept apart here.

Test system: women

For `CC#C[C@]1(O)CC[C@H]2[C@@H]3CCC4=CC(=O)CCC4=C3[C@@H](c3ccc(N(C)C)cc3)C[C@@]21C` [mifepristone], the “women who ovulated at least once” value (1 mg daily, 3-month treatment (Croxatto 1998)) is given as 14 of 21, the “ovulations, % of cycles” value (2 mg continuous, 4 months, Edinburgh site (Brown 2002)) is given as 9.6% and the “ovulations, % of cycles” value (2 mg continuous, Shanghai site (Brown 2002)) is given as 2.5%. For the same compound, the “ovulations, % of cycles” value (5 mg continuous, 4 months, Edinburgh site (Brown 2002)) was 5.2%, the “ovulations, % of cycles” value (5 mg continuous, Shanghai site (Brown 2002)) was 1.2% and the prevention of ovulation (continuous dose of 1 mg, study of 11 subjects (Batista 1992)) was “appeared to prevent ovulation”. The prevention of ovulation (continuous dose of 1 mg, study with 5 subjects (Croxatto 1993)) was “not” and the prevention of ovulation (continuous low doses 2-10 mg, one treatment cycle, about 5 subjects per dose group (Spitz 1993; Ledger 1992)) was “prevent ovulation”.
